Experimental data taken from ChEMBL document CHEMBL1137409, “Discovery of phenyl acetic acid substituted quinolines as novel liver X receptor agonists for the treatment of atherosclerosis” (J Med Chem, 2006).

What was measured:
[1] = target: T1, Peroxisome proliferator-activated receptor alpha (Homo sapiens, UniProt Q07869); assay: Agonist activity at human PPAR alpha by GAL4 transactivation assay; format: functional
T1 sequence (Q07869 whole entry): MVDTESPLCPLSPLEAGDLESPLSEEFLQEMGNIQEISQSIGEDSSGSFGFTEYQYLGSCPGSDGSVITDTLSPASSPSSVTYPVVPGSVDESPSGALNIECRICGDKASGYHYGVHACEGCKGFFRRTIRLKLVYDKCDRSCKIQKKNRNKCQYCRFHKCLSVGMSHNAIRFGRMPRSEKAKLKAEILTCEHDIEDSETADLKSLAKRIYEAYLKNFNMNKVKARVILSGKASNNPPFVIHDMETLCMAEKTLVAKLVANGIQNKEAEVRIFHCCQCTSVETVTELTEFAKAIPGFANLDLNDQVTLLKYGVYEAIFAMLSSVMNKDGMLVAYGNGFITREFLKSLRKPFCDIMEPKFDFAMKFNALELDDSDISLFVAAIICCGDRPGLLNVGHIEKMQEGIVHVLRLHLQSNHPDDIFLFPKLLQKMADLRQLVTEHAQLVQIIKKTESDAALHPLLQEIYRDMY

[2] = target: T2, Peroxisome proliferator-activated receptor delta (Homo sapiens, UniProt Q03181); assay: Agonist activity at human PPAR delta by GAL4 transactivation assay; format: functional
T2 sequence (Q03181 whole entry): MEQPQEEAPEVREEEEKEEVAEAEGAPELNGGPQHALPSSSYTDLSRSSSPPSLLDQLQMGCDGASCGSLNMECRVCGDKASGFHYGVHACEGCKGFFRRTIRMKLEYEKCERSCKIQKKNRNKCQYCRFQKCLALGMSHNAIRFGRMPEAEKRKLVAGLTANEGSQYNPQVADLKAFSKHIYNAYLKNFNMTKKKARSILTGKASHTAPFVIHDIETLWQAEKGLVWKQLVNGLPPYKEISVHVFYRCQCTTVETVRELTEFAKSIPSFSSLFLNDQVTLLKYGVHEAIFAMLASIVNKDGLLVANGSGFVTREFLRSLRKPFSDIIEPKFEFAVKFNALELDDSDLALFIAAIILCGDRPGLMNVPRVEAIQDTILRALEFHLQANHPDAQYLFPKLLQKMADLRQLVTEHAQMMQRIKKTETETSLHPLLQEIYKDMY

THP-1 [3] = assay: Induction of ABCA1 expression in THP1 cell line; format: functional, cell-based; details: Homo sapiens
Huh-7 [4] = assay: Induction of SREBP1c expression in Huh7 cell line; format: functional, cell-based; details: Homo sapiens
THP-1 [5] = assay: Induction of ABCA1 expression in THP1 cell line relative to TO901317; format: functional, Homo sapiens
Huh-7 [6] = assay: Induction of SREBP1c expression in Huh7 cell line relative to TO901317; format: functional, Homo sapiens
[7] = Half life in human liver microsomes; format: ADME, Microsome
[8] = target: T3, Peroxisome proliferator-activated receptor gamma (Homo sapiens, UniProt P37231)
T3 sequence (P37231 whole entry): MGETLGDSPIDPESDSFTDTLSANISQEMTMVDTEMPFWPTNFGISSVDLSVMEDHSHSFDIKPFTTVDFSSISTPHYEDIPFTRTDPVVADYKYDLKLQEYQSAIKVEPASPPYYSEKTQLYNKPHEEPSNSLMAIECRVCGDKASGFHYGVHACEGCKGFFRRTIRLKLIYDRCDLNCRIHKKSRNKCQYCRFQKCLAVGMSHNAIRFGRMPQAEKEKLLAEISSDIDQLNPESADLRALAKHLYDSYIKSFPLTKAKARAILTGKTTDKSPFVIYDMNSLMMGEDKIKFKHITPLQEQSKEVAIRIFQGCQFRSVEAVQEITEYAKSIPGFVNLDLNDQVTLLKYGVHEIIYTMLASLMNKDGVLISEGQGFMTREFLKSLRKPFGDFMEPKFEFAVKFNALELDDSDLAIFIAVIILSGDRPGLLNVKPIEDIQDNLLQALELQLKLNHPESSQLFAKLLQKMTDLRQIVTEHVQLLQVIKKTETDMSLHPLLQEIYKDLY

[9] = target: T4, Oxysterols receptor LXR-alpha (Homo sapiens, UniProt Q13133); assay: Agonist activity at human LXR alpha expressed in Huh7 cells by GAL4 transactivation assay; format: functional, cell-based, Huh-7
T4 sequence (Q13133 whole entry): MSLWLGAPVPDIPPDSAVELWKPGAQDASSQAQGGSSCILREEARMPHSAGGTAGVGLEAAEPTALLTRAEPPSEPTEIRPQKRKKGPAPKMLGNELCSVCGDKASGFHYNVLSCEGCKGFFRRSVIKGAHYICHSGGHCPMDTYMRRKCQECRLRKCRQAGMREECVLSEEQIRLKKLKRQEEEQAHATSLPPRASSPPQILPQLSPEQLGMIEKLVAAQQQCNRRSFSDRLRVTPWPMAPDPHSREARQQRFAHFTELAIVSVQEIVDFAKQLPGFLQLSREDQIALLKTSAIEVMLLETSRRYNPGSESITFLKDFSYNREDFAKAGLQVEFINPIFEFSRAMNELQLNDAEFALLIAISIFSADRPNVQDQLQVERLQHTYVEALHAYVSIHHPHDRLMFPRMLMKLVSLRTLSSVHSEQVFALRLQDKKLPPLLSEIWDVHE

[10] = target: T5, Oxysterols receptor LXR-beta (Homo sapiens, UniProt P55055); assay: Agonist activity at human LXR beta expressed in Huh7 cells by GAL4 transactivation assay; format: functional, cell-based, Huh-7
T5 sequence (P55055 whole entry): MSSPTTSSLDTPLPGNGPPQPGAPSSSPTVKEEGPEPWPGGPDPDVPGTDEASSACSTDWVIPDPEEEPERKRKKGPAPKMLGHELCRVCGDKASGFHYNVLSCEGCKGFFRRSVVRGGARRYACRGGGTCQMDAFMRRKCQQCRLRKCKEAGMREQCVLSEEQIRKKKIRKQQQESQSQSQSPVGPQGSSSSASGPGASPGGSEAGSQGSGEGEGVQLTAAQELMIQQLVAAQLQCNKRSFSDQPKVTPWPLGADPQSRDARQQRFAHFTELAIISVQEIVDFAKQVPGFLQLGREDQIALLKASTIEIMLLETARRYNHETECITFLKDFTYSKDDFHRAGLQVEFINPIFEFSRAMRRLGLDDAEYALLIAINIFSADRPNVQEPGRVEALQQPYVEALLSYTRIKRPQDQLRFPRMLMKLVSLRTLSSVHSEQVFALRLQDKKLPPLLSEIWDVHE

THP-1 [11] = assay: Stimulation of cholesterol efflux in THP1 cell line; format: functional, cell-based; details: Homo sapiens
[12] = Bioavailability in C57 mouse at 10 mg/kg, po; format: ADME, organism-based; details: in vivo
[13] = Cmax in C57 mouse at 10 mg/kg, po; format: ADME, organism-based; design: dose 10 mg/kg, route oral; details: in vivo
[14] = AUC (0-infinity) in C57 mouse at 10 mg/kg, po; format: ADME, organism-based; design: time infinity, dose 10 mg/kg, route oral; details: plasma
[15] = Terminal half life in C57 mouse at 10 mg/kg, po; format: ADME, organism-based; design: dose 10 mg/kg, route oral; details: in vivo, read-out: beta t1/2 (converted)
[16] = Tmax in C57 mouse at 10 mg/kg, po; format: ADME, organism-based; design: dose 10 mg/kg, route oral; details: in vivo
Mus musculus = assay: Reduction of atherosclerotic lesion of thoracic aorta in LDLr knockout C57BL/6 mouse at 10 mg/kg/day, po after 8 weeks relative to control; format: functional; design: scale not given: the % may be the effect or the level left
[17] = target: T4, Oxysterols receptor LXR-alpha
[18] = target: T5, Oxysterols receptor LXR-beta
[19] = target: T5, Oxysterols receptor LXR-beta; remark: listed apart in the source
[20] = Half life in human liver microsomes at 20 uM; format: ADME, Microsome

IC50 [17] [nM]	EC50 [18] [nM]	IC50 [19] [nM]	SMILES	EC50 [1] [nM]	EC50 [2] [nM]	EC50 (THP-1 [3]) [nM]	EC50 (Huh-7 [4]) [nM]	Efficacy (THP-1 [5]) [%]	Efficacy (Huh-7 [6]) [%]	EC50 [8] [nM]	Activity (Mus musculus) [%]	other results
			O=C(O)Cc1ccc(COc2cccc(-c3c(Cc4ccccc4)cnc4c(C(F)(F)F)cccc34)c2)cc1	1310	627	55	45	172	106	680		half-life [7]: 107 min
> 1000	296	> 1000	COC(=O)c1ccc(COc2cccc(-c3c(C(=O)c4ccccc4)cnc4c(C(F)(F)F)cccc34)c2)cc1									
			O=C(O)Cc1ccc(COc2cccc(-c3c(C(=O)c4ccccc4)cnc4c(C(F)(F)F)cccc34)c2)cc1									half-life at 20 µM [20]: 3.5 min
100	410	12	O=C(O)Cc1cccc(OCCCN(Cc2cccc(C(F)(F)F)c2Cl)CC(c2ccccc2)c2ccccc2)c1								27	

SMILES	IC50 [17] [nM]	EC50 [18] [nM]	IC50 [19] [nM]	EC50 [1] [nM]	EC50 [2] [nM]	EC50 (THP-1 [3]) [nM]	EC50 (Huh-7 [4]) [nM]	Efficacy (THP-1 [5]) [%]	Efficacy (Huh-7 [6]) [%]	EC50 [8] [nM]	Activity (Mus musculus) [%]	other results
O=C(O)Cc1ccc(CNc2cccc(-c3c(Cc4ccccc4)cnc4c(C(F)(F)F)cccc34)c2)cc1	7.6	33		1300	1320	33	15	151	73	320	45	EC50 [9]: 160 nM; EC50 [10]: 87 nM; EC50 (THP-1 [11]): 37 nM; bioavailability [12]: 67%; Cmax [13]: 3740 ng/mL; AUC(0-inf) [14]: 4440 ng·h/mL; half-life [15]: 78 min; Tmax [16]: 30 min
